What all share (type): biochemical
Test [1] concerns the target T1, PC1 (Mus musculus, UniProt P63239).
T1 construct: made in house
T1 sequence (P63239 111-753): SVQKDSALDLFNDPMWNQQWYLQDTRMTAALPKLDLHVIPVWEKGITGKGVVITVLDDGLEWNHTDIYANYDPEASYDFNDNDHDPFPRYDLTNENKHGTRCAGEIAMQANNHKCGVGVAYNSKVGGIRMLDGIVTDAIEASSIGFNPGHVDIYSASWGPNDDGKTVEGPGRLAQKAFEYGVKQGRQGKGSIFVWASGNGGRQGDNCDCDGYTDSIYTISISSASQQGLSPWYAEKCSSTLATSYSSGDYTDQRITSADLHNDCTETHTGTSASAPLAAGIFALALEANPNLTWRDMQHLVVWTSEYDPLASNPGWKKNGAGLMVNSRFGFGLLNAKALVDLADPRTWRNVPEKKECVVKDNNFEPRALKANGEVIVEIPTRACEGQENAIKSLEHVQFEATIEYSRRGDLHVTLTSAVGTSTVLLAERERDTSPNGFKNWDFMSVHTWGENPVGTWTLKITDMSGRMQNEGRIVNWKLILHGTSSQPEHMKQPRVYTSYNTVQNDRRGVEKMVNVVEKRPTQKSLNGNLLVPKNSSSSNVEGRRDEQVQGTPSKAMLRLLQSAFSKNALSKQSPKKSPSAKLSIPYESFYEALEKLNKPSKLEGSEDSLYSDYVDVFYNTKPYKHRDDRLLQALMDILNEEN
The experiment in a line: biochemical. The procedure:
The proprotein convertases PC1 and PC2 were prepared by ion exchange chromatography as described in G. Frenette et al., Biochim. Biophys. Acta., vol. 1334, pp. 109-115 (1997).
(§1) Enzyme Assays and Hexapeptide Library Screening. Enzyme assays for PC1 and PC2 were performed at pH 5.0 using pERTKR-MCA (Peptides International Inc., Louisville, Ky.) as described in E. Apletalina et al., J. Biol. Chem., vol. 273, pp. 26589-26595 (1998). The assay for furin was performed using the same substrate at pH 7.0 in 100 mM HEPES, 5 mM CaCl2, 0.1% Brij 35. All assays were performed at 37° C. in a 96 well fluorometer (Labsystems) at an excitation wavelength of 380 nm with emission monitored at a wavelength of 460 nm. The total volume was 50 μL. Unless otherwise stated, the final substrate concentration for all assays was 200 μM. When used in a particular experiment, the inhibitory peptides were pre-incubated with enzyme for 30 min at room temperature prior to addition of substrate. All assays were performed in duplicate or triplicate.

The target of test [2] is T2, furin (Mus musculus, UniProt P23188).
T2 construct: truncated N-terminally to the transmembrane domain at His^711 using PCR; myc (C, cleaved yes); hexa-His (C, cleaved yes); made in house; host or cells: DG44 CHO cells, conditioned medium
Nature of the test: Cleavage of polyarginines by furin, HPLC analysis. The procedure: Absorbance was monitored at 214 nm. Cleavage products were identified by comparison to polyarginine standards.
Cleavage of Nona-L-arginine (SEQ ID NO 13) and Hexa-L-arginine (SEQ ID NO 14) by Furin. FIGS. 10(a) through (h) depict the cleavage of nona-L-arginine (SEQ ID NO 13) and hexa-L-arginine (SEQ ID NO 14) by furin. Furin (FIGS. (10(b), (c), (d), (e), and (g)) or buffer (FIGS. 10(f) and (h) was incubated with nona-L-arginine (SEQ ID NO 13) (FIGS. 10(b), (c), (d), (e), and (f) or hexa-L-arginine (SEQ ID NO 14) (FIGS. (10(g) and (h) at 37° C. for 0 min (FIG. (10(b)), 40 min (FIG. 10(c)), 6 h (FIG. 10(d)), or 24 h (FIGS. 10(e), (f), (g), and (h) prior to separation by HPLC as described in the experimental procedures. In FIG. 10(a) the simple separation of a standard mixture polyarginines (without enzyme) is shown; the number of residues per poly-L-arginine is indicated by the positions of the arrows at the tops of FIGS. 10(a) and (e).

For test [3], the target named is T3, PACE4 (Rattus norvegicus, UniProt Q63415).
T3 construct: made in house; host or cells: stably transfected hEK-293 cells (gift of R. E. Mains), conditioned medium
T3 sequence (Q63415 133-937): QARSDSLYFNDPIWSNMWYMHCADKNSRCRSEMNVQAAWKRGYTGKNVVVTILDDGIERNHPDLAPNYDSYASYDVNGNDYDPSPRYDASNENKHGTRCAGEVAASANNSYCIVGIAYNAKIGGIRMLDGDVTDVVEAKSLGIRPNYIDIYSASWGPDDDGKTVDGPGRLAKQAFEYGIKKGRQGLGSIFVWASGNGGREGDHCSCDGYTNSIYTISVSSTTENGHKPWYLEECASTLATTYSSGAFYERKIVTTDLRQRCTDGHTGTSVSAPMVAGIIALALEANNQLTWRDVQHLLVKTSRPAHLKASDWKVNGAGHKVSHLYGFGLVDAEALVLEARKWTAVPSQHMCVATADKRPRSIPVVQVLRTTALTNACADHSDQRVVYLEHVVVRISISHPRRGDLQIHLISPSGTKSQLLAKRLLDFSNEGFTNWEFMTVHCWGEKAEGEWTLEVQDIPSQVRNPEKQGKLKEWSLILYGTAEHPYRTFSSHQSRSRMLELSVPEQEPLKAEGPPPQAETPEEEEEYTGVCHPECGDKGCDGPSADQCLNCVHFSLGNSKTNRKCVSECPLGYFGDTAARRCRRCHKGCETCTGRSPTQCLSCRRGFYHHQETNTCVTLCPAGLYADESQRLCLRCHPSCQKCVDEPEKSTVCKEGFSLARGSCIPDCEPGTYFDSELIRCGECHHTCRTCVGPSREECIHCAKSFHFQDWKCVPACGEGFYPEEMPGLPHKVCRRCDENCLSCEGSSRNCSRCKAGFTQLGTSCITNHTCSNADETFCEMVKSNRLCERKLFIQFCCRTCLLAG
Nature of the test: PACE4 enzyme assay, hydrolysis of pERTKR-MCA. Here is the method:
The proprotein convertase PACE4 was partially purified from an overnight-conditioned medium of stably transfected hEK-293 human embryonic kidney cells (a generous gift of R. E. Mains, Johns Hopkins University School of Medicine, Baltimore, Md.). Briefly, 100 mL of conditioned medium (OptiMEM containing 100 μg/mL aprotinin) was loaded onto an Econo-Pac Q (Bio-Rad) column at 4 mL/min, washed with 10 mL of buffer A, and then eluted with a linear gradient of buffer A containing 500 mM NaCl over 50 mL. The active fractions were then diluted 1:4 with buffer A prior to loading onto a Mono Q column (Pharmacia) at 1 mL/min. The PACE4 was eluted with a linear gradient of buffer A containing 500 mM NaCl over 10 mL. The resulting active fractions were then pooled and stored at −80° C. until use.
as §1

Data on 3 compounds can be found in US7569547B2, “Inhibiting furin with polybasic peptides” (Board of Supervisors of Louisiana State University and …, priority 2001, dated 2009).

Where two headings read alike, the source gives them in different places.

T2 sequence (P23188 108-714 limits assumed): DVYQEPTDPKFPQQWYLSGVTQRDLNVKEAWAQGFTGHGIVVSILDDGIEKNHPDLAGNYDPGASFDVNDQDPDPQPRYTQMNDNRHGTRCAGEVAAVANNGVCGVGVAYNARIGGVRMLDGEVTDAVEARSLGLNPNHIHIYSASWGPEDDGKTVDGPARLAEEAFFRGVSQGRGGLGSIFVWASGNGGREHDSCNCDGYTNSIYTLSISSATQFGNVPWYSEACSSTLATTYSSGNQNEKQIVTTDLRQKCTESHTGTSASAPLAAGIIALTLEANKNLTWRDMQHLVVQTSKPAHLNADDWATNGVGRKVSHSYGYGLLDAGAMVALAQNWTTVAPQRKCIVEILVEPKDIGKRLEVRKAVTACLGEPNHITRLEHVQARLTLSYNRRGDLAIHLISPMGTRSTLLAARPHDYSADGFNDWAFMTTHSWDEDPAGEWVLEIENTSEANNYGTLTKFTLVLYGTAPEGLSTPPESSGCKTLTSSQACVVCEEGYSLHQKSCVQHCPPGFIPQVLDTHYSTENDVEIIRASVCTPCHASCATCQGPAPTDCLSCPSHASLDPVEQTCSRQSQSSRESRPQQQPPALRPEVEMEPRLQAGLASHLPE

Take `N=C(N)NCCC[C@@H](NC(=O)[C@H](N)CCCN=C(N)N)C(=O)N[C@H](CCCNC(=N)N)C(=O)N[C@H](CCCNC(=N)N)C(=O)N[C@H](CCCNC(=N)N)C(=O)N[C@H](CCCN=C(N)N)C(=O)O` [Hexa-D-arginine]: the Ki in test [1] amounted to 13000 ± 250 nM; in test [3] (polyarginine peptides, mean ± S.D., three experiments, read-out: Ki PACE4), 580 ± 40 nM. Besides, the cleavage by furin entry in test [2] (after 24 hours incubation) was “essentially no cleavage”.

On to `N=C(N)NCCC[C@H](NC(=O)[C@H](CCCNC(=N)N)NC(=O)[C@H](CCCNC(=N)N)NC(=O)[C@H](CCCNC(=N)N)NC(=O)[C@H](CCCNC(=N)N)NC(=O)[C@@H](N)CCCNC(=N)N)C(=O)O` [Hexa-L-arginine], for which the Ki stood at 3900 ± 620 nM in test [1] and 520 ± 45 nM in test [3]. Further, the cleavage by furin entry is listed as “partial digestion” in test [2] (after 24 hours incubation) and “essentially no cleavage” in test [2] (after six hours incubation).

Consider `N=C(N)NCCC[C@H](NC(=O)[C@H](CCCNC(=N)N)NC(=O)[C@H](CCCNC(=N)N)NC(=O)[C@H](CCCNC(=N)N)NC(=O)[C@H](CCCNC(=N)N)NC(=O)[C@H](CCCNC(=N)N)NC(=O)[C@H](CCCNC(=N)N)NC(=O)[C@H](CCCNC(=N)N)NC(=O)[C@@H](N)CCCNC(=N)N)C(=O)O` [Nona-L-arginine], for which the values for the Ki in test [1] and in test [3] were 12000 ± 2500 nM and 110 ± 13 nM, respectively. Moreover, the “time at which cleavage by furin was first observed” value in test [2] (200 μM peptide, 1.7 μM furin, 37° C.) was roughly 40 min. Moreover, the original peptide remaining entry in test [2] (after four hours with furin, 37° C.) is “essentially none”.
